Laboratory results from patent US20190153409A1, “COMPOSITIONS COMPRISING PARTICLES AND METHODS FOR TREATING CANCER” (priority 2017, published 2019).

Tests used:
[1] = biological target: mCherry-MazF (E. coli MazF ribonuclease fused to the C terminus of the monomeric red fluorescence protein mCherry) (E. coli) (UniProt P0AE70); assay: cell-based or functional assay
[2] = system: p53; assay: p53 transcription activity: GFP reporter in HCT116 cells transfected with RGC-mazE-IRES-GFP plasmid; type: cell-based, human
Description: In order to test the ability of p53 to bind to its responsive element and stimulate transcription, HCT116 cells were transfected with RGC-mazE-IRES-GFP plasmid. Since p53 is degraded in un-activated cells, the present inventors used Quercetin, a ubiquitous bioactive plant flavonoid that is able to induce p53 phosphorylation, stabilization and total p53 protein accumulation. Another widely used p53 inducer is the antimetabolite agent 5-FU. P53 transcription activity was evaluated by measuring the expression of the downstream reporter gene, GFP.

[3] = system: HCT116 cells; assay: Cell toxicity in transfected HCT116 cells
[4] = system: HCT116 cells

mCherry-MazF (E. coli MazF ribonuclease fused to the C terminus of the monomeric red fluorescence protein mCherry) (E. coli), sequence (P0AE70 whole entry, the tested form may be a part): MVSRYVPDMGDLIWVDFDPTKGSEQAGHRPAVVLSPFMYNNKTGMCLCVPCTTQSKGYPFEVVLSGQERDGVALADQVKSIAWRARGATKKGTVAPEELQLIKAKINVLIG

## E. coli antitoxin MazE (from UniProt P0AE72 1-82)
[1]
  yield of mCherry-MazF adenovirus in HEK293 packaging cells that constitutively express MazE, against parental HEK293 cells (orders of magnitude): 2

## O=c1c(O)c(-c2ccc(O)c(O)c2)oc2cc(O)cc(O)c12 [Quercetin]
[2]; 50 μM
  increase of GFP expression: about 10 folds
[3]
  cell death (cell toxicity): 60%

## O=c1[nH]cc(F)c(=O)[nH]1 [5-FU]
[2]; 10 μM, compared with Quercetin
  GFP expression levels: significantly higher expression levels of GFP
[4]
  cell toxicity: no toxicity
